{"source": "PubChem BioAssay (NCI)", "assay_in_all_cases": "DTP human tumour cell line panel, 384-well format", "key": {"HT29 colon": {"test_system": "HT29 colon"}, "NCI-H522 lung": {"test_system": "NCI-H522 lung"}, "PC-3 prostate": {"test_system": "PC-3 prostate"}, "HCT-15 colon": {"test_system": "HCT-15 colon"}, "EKVX NSCLC": {"test_system": "EKVX NSCLC"}, "SNB-19 CNS": {"test_system": "SNB-19 CNS"}, "HCC-2998 colon": {"test_system": "HCC-2998 colon"}, "NCI-H23 lung": {"test_system": "NCI-H23 lung"}, "SW-620 colon": {"test_system": "SW-620 colon"}, "SK-MEL-28 melanoma": {"test_system": "SK-MEL-28 melanoma"}, "CAKI-1 renal": {"test_system": "CAKI-1 renal"}, "TK-10 renal": {"test_system": "TK-10 renal"}, "MCF7 breast": {"test_system": "MCF7 breast"}, "RXF 393 renal": {"test_system": "RXF 393 renal"}, "NCI/ADR-RES ovarian": {"test_system": "NCI/ADR-RES ovarian"}, "SF-268 CNS": {"test_system": "SF-268 CNS"}, "SR leukemia": {"test_system": "SR leukemia"}, "SK-OV-3 ovarian": {"test_system": "SK-OV-3 ovarian"}, "OVCAR-4 ovarian": {"test_system": "OVCAR-4 ovarian"}, "T-47D breast": {"test_system": "T-47D breast"}, "OVCAR-8 ovarian": {"test_system": "OVCAR-8 ovarian"}, "MDA-MB-468 breast": {"test_system": "MDA-MB-468 breast"}, "SN12C renal": {"test_system": "SN12C renal"}, "A549 NSCLC": {"test_system": "A549 NSCLC"}, "MALME-3M melanoma": {"test_system": "MALME-3M melanoma"}, "MDA-MB-435 melanoma": {"test_system": "MDA-MB-435 melanoma"}, "SK-MEL-2 melanoma": {"test_system": "SK-MEL-2 melanoma"}, "M14 melanoma": {"test_system": "M14 melanoma"}}, "note": "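GI50: concentration for 50% inhibition of growth. TGI marks complete inhibition of growth.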"}
{"smiles": "CC(=O)c1cc2c(o1)C(=O)c1ccccc1C2=O", "values": [{"measurement": "GI50", "setting": "HT29 colon", "value": 175, "unit": "nM"}, {"measurement": "TGI", "setting": "HT29 colon", "value": 316, "unit": "nM"}, {"measurement": "GI50", "setting": "NCI-H522 lung", "value": 153, "unit": "nM"}, {"measurement": "TGI", "setting": "NCI-H522 lung", "value": 289, "unit": "nM"}, {"measurement": "GI50", "setting": "PC-3 prostate", "value": 259, "unit": "nM"}, {"measurement": "TGI", "setting": "PC-3 prostate", "value": 1140, "unit": "nM"}, {"measurement": "GI50", "setting": "HCT-15 colon", "value": 157, "unit": "nM"}, {"measurement": "TGI", "setting": "HCT-15 colon", "value": 294, "unit": "nM"}, {"measurement": "GI50", "setting": "EKVX NSCLC", "value": 363, "unit": "nM"}, {"measurement": "TGI", "setting": "EKVX NSCLC", "value": 1470, "unit": "nM"}, {"measurement": "GI50", "setting": "SNB-19 CNS", "value": 175, "unit": "nM"}, {"measurement": "TGI", "setting": "SNB-19 CNS", "value": 322, "unit": "nM"}, {"measurement": "GI50", "setting": "HCC-2998 colon", "value": 160, "unit": "nM"}, {"measurement": "TGI", "setting": "HCC-2998 colon", "value": 305, "unit": "nM"}, {"measurement": "GI50", "setting": "NCI-H23 lung", "value": 33.2, "unit": "nM"}, {"measurement": "TGI", "setting": "NCI-H23 lung", "value": 138, "unit": "nM"}, {"measurement": "GI50", "setting": "SW-620 colon", "value": 175, "unit": "nM"}, {"measurement": "TGI", "setting": "SW-620 colon", "value": 367, "unit": "nM"}, {"measurement": "GI50", "setting": "SK-MEL-28 melanoma", "value": 186, "unit": "nM"}, {"measurement": "TGI", "setting": "SK-MEL-28 melanoma", "value": 336, "unit": "nM"}, {"measurement": "GI50", "setting": "CAKI-1 renal", "value": 1030, "unit": "nM"}, {"measurement": "TGI", "setting": "CAKI-1 renal", "value": 2210, "unit": "nM"}, {"measurement": "GI50", "setting": "TK-10 renal", "value": 1100, "unit": "nM"}, {"measurement": "TGI", "setting": "TK-10 renal", "value": 2290, "unit": "nM"}, {"measurement": "GI50", "setting": "MCF7 breast", "value": 165, "unit": "nM"}, {"measurement": "TGI", "setting": "MCF7 breast", "value": 305, "unit": "nM"}, {"measurement": "GI50", "setting": "RXF 393 renal", "value": 163, "unit": "nM"}, {"measurement": "TGI", "setting": "RXF 393 renal", "value": 326, "unit": "nM"}, {"measurement": "GI50", "setting": "NCI/ADR-RES ovarian", "value": 215, "unit": "nM"}, {"measurement": "TGI", "setting": "NCI/ADR-RES ovarian", "value": 562, "unit": "nM"}, {"measurement": "GI50", "setting": "SF-268 CNS", "value": 234, "unit": "nM"}, {"measurement": "TGI", "setting": "SF-268 CNS", "value": 818, "unit": "nM"}, {"measurement": "GI50", "setting": "SR leukemia", "value": 156, "unit": "nM"}, {"measurement": "TGI", "setting": "SR leukemia", "value": 295, "unit": "nM"}, {"measurement": "GI50", "setting": "SK-OV-3 ovarian", "value": 1030, "unit": "nM"}, {"measurement": "TGI", "setting": "SK-OV-3 ovarian", "value": 2210, "unit": "nM"}, {"measurement": "GI50", "setting": "OVCAR-4 ovarian", "value": 156, "unit": "nM"}, {"measurement": "TGI", "setting": "OVCAR-4 ovarian", "value": 295, "unit": "nM"}, {"measurement": "GI50", "setting": "T-47D breast", "value": 198, "unit": "nM"}, {"measurement": "TGI", "setting": "T-47D breast", "value": 439, "unit": "nM"}, {"measurement": "GI50", "setting": "OVCAR-8 ovarian", "value": 236, "unit": "nM"}, {"measurement": "TGI", "setting": "OVCAR-8 ovarian", "value": 669, "unit": "nM"}, {"measurement": "GI50", "setting": "MDA-MB-468 breast", "value": 220, "unit": "nM"}, {"measurement": "TGI", "setting": "MDA-MB-468 breast", "value": 565, "unit": "nM"}, {"measurement": "GI50", "setting": "SN12C renal", "value": 165, "unit": "nM"}, {"measurement": "TGI", "setting": "SN12C renal", "value": 309, "unit": "nM"}, {"measurement": "GI50", "setting": "A549 NSCLC", "value": 176, "unit": "nM"}, {"measurement": "TGI", "setting": "A549 NSCLC", "value": 317, "unit": "nM"}, {"measurement": "GI50", "setting": "MALME-3M melanoma", "value": 148, "unit": "nM"}, {"measurement": "TGI", "setting": "MALME-3M melanoma", "value": 280, "unit": "nM"}, {"measurement": "GI50", "setting": "MDA-MB-435 melanoma", "value": 156, "unit": "nM"}, {"measurement": "TGI", "setting": "MDA-MB-435 melanoma", "value": 291, "unit": "nM"}, {"measurement": "GI50", "setting": "SK-MEL-2 melanoma", "value": 269, "unit": "nM"}, {"measurement": "TGI", "setting": "SK-MEL-2 melanoma", "value": 434, "unit": "nM"}, {"measurement": "GI50", "setting": "M14 melanoma", "value": 168, "unit": "nM"}, {"measurement": "TGI", "setting": "M14 melanoma", "value": 306, "unit": "nM"}]}
